From ChEMBL document CHEMBL1201861, “Genomics of Drug Sensitity in Cancer screening data, Wellcome Trust Sanger Institute”

The compounds below were run on MZ2-MEL (assay: cells). Conditions: Homo sapiens, MZ2-MEL.
Type: functional, cell-based, Homo sapiens
Description: SANGER: Inhibition of human MZ2-MEL cell growth in a cell viability assay.
In the case of `COc1cccc2c1C(=O)c1c(O)c3c(c(O)c1C2=O)C[C@@](O)(C(=O)CO)C[C@@H]3O[C@H]1C[C@H](N)[C@H](O)[C@H](C)O1` [DOXORUBICIN], the IC50 is reported as 33.9 nM.

The compounds below were run on BXPC-3 (assay: cells). Conditions: Homo sapiens, BXPC-3.
Type: functional, cell-based, Homo sapiens
Description: SANGER: Inhibition of human BxPC-3 cell growth in a cell viability assay.
`COc1cccc2c1C(=O)c1c(O)c3c(c(O)c1C2=O)C[C@@](O)(C(=O)CO)C[C@@H]3O[C@H]1C[C@H](N)[C@H](O)[C@H](C)O1` [DOXORUBICIN] showed an IC50 of 211 nM.

These compounds were tested on LN-405 (assay: cells). Conditions: Homo sapiens, LN-405.
Type: functional, cell-based, Homo sapiens
Description: SANGER: Inhibition of human LN-405 cell growth in a cell viability assay.
In the case of `COc1cccc2c1C(=O)c1c(O)c3c(c(O)c1C2=O)C[C@@](O)(C(=O)CO)C[C@@H]3O[C@H]1C[C@H](N)[C@H](O)[C@H](C)O1` [DOXORUBICIN], the IC50 is reported as greater than 1020 nM.

These compounds were tested on 8505C (assay: cells). Conditions: Homo sapiens, 8505C.
Type: functional, cell-based, Homo sapiens
Description: SANGER: Inhibition of human 8505C cell growth in a cell viability assay.
Work on `COc1cccc2c1C(=O)c1c(O)c3c(c(O)c1C2=O)C[C@@](O)(C(=O)CO)C[C@@H]3O[C@H]1C[C@H](N)[C@H](O)[C@H](C)O1` [DOXORUBICIN] yielded an IC50 of 19.6 nM.

What follows are compounds tested on GAK (assay: cells). Conditions: Homo sapiens, GAK.
Type: functional, cell-based, Homo sapiens
Description: SANGER: Inhibition of human GAK cell growth in a cell viability assay.
`COc1cccc2c1C(=O)c1c(O)c3c(c(O)c1C2=O)C[C@@](O)(C(=O)CO)C[C@@H]3O[C@H]1C[C@H](N)[C@H](O)[C@H](C)O1` [DOXORUBICIN] showed an IC50 of 257 nM.

These compounds were tested on TE-1 (assay: cells). Conditions: Homo sapiens, TE-1.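 Further: growth inhibition of the human TE-1 cell line, read out with a cell viability assay.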
Type: functional, cell-based, Homo sapiens
Description: SANGER: Inhibition of human TE-1 cell growth in a cell viability assay.
`COc1cccc2c1C(=O)c1c(O)c3c(c(O)c1C2=O)C[C@@](O)(C(=O)CO)C[C@@H]3O[C@H]1C[C@H](N)[C@H](O)[C@H](C)O1` [DOXORUBICIN] gave an IC50 of 76.4 nM.

Each compound was assayed on Lu-65 (assay: cells). Conditions: Homo sapiens, Lu-65.
Type: functional, cell-based, Homo sapiens
Description: SANGER: Inhibition of human LU-65 cell growth in a cell viability assay.
`COc1cccc2c1C(=O)c1c(O)c3c(c(O)c1C2=O)C[C@@](O)(C(=O)CO)C[C@@H]3O[C@H]1C[C@H](N)[C@H](O)[C@H](C)O1` [DOXORUBICIN] showed an IC50 of 346 nM.

The compounds below were run on U-698-M (assay: cells). Conditions: Homo sapiens, U-698-M.
Type: functional, cell-based, Homo sapiens
Description: SANGER: Inhibition of human U-698-M cell growth in a cell viability assay.
`COc1cccc2c1C(=O)c1c(O)c3c(c(O)c1C2=O)C[C@@](O)(C(=O)CO)C[C@@H]3O[C@H]1C[C@H](N)[C@H](O)[C@H](C)O1` [DOXORUBICIN] was tested, and the IC50 was 139 nM.

What follows are compounds tested on D-392MG (assay: cells). Conditions: Homo sapiens, D-392MG.
Type: functional, cell-based, Homo sapiens
Work on `COc1cccc2c1C(=O)c1c(O)c3c(c(O)c1C2=O)C[C@@](O)(C(=O)CO)C[C@@H]3O[C@H]1C[C@H](N)[C@H](O)[C@H](C)O1` [DOXORUBICIN] yielded an IC50 of 249 nM.

The compounds below were run on RPMI-2650 (assay: cells). Conditions: Homo sapiens, RPMI-2650.
Type: functional, cell-based, Homo sapiens
Description: SANGER: Inhibition of human RPMI-2650 cell growth in a cell viability assay.
Compound `COc1cccc2c1C(=O)c1c(O)c3c(c(O)c1C2=O)C[C@@](O)(C(=O)CO)C[C@@H]3O[C@H]1C[C@H](N)[C@H](O)[C@H](C)O1` [DOXORUBICIN] has an IC50 of 13.7 nM.

Each compound was assayed on NCI-H1304 (assay: cells). Conditions: Homo sapiens, NCI-H1304.
Type: functional, cell-based, Homo sapiens
Description: SANGER: Inhibition of human NCI-H1304 cell growth in a cell viability assay.
`COc1cccc2c1C(=O)c1c(O)c3c(c(O)c1C2=O)C[C@@](O)(C(=O)CO)C[C@@H]3O[C@H]1C[C@H](N)[C@H](O)[C@H](C)O1` [DOXORUBICIN] gave an IC50 of 321 nM.

Each compound was assayed on ASPC1 (assay: cells). Conditions: Homo sapiens, ASPC1.
Type: functional, cell-based, Homo sapiens
Description: SANGER: Inhibition of human AsPC-1 cell growth in a cell viability assay.
`COc1cccc2c1C(=O)c1c(O)c3c(c(O)c1C2=O)C[C@@](O)(C(=O)CO)C[C@@H]3O[C@H]1C[C@H](N)[C@H](O)[C@H](C)O1` [DOXORUBICIN] showed an IC50 of 855 nM.

Each compound was assayed on MKN-45 (assay: cells). Conditions: Homo sapiens, MKN-45.
Type: functional, cell-based, Homo sapiens
Description: SANGER: Inhibition of human MKN45 cell growth in a cell viability assay.
For `COc1cccc2c1C(=O)c1c(O)c3c(c(O)c1C2=O)C[C@@](O)(C(=O)CO)C[C@@H]3O[C@H]1C[C@H](N)[C@H](O)[C@H](C)O1` [DOXORUBICIN], the IC50 was 81.5 nM.

What follows are compounds tested on NCI-H1581 (assay: cells). Conditions: Homo sapiens, NCI-H1581.
Type: functional, cell-based, Homo sapiens
Description: SANGER: Inhibition of human NCI-H1581 cell growth in a cell viability assay.
Compound `COc1cccc2c1C(=O)c1c(O)c3c(c(O)c1C2=O)C[C@@](O)(C(=O)CO)C[C@@H]3O[C@H]1C[C@H](N)[C@H](O)[C@H](C)O1` [DOXORUBICIN] has an IC50 of 981 nM.

What follows are compounds tested on FTC-133 (assay: cells). Conditions: Homo sapiens, FTC-133.
Type: functional, cell-based, Homo sapiens
Compound `COc1cccc2c1C(=O)c1c(O)c3c(c(O)c1C2=O)C[C@@](O)(C(=O)CO)C[C@@H]3O[C@H]1C[C@H](N)[C@H](O)[C@H](C)O1` [DOXORUBICIN] has an IC50 of 229 nM.

What follows are compounds tested on RPMI 8402 (assay: SANGER: Inhibition of human RPMI-8402 cell growth in a cell viability assay.). Conditions: Homo sapiens, RPMI 8402; read-out: IC50.
Type: functional, cell-based
Compound `COc1cccc2c1C(=O)c1c(O)c3c(c(O)c1C2=O)C[C@@](O)(C(=O)CO)C[C@@H]3O[C@H]1C[C@H](N)[C@H](O)[C@H](C)O1` [DOXORUBICIN] has an IC50 of 53.9 nM.

Each compound was assayed on NCI-H1437 (assay: cells). Conditions: Homo sapiens, NCI-H1437.
Type: functional, cell-based, Homo sapiens
Description: SANGER: Inhibition of human NCI-H1437 cell growth in a cell viability assay.
For `COc1cccc2c1C(=O)c1c(O)c3c(c(O)c1C2=O)C[C@@](O)(C(=O)CO)C[C@@H]3O[C@H]1C[C@H](N)[C@H](O)[C@H](C)O1` [DOXORUBICIN], the IC50 was 64.6 nM.

What follows are compounds tested on NCI-H358 (assay: cells). Conditions: Homo sapiens, NCI-H358.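 Further: growth inhibition of NCI-H358 human cells, read out with a cell viability assay.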
Type: functional, cell-based, Homo sapiens
Description: SANGER: Inhibition of human NCI-H358 cell growth in a cell viability assay.
Work on `COc1cccc2c1C(=O)c1c(O)c3c(c(O)c1C2=O)C[C@@](O)(C(=O)CO)C[C@@H]3O[C@H]1C[C@H](N)[C@H](O)[C@H](C)O1` [DOXORUBICIN] yielded an IC50 of 41.1 nM.

The compounds below were run on NCI-H716 (assay: cells). Conditions: Homo sapiens, NCI-H716.
Type: functional, cell-based, Homo sapiens
Description: SANGER: Inhibition of human NCI-H716 cell growth in a cell viability assay.
`COc1cccc2c1C(=O)c1c(O)c3c(c(O)c1C2=O)C[C@@](O)(C(=O)CO)C[C@@H]3O[C@H]1C[C@H](N)[C@H](O)[C@H](C)O1` [DOXORUBICIN] showed an IC50 greater than 1020 nM.

The compounds below were run on KARPAS-299 (assay: cells). Conditions: Homo sapiens, KARPAS-299.
Type: functional, cell-based, Homo sapiens
Description: SANGER: Inhibition of human KARPAS-299 cell growth in a cell viability assay.
`COc1cccc2c1C(=O)c1c(O)c3c(c(O)c1C2=O)C[C@@](O)(C(=O)CO)C[C@@H]3O[C@H]1C[C@H](N)[C@H](O)[C@H](C)O1` [DOXORUBICIN] showed an IC50 greater than 1020 nM.

What follows are compounds tested on BC-3 (assay: cells). Conditions: Homo sapiens, BC-3.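 Further: cell viability assay measuring growth inhibition of human BC-3 cells.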
Type: functional, cell-based, Homo sapiens
Description: SANGER: Inhibition of human BC-3 cell growth in a cell viability assay.
In the case of `COc1cccc2c1C(=O)c1c(O)c3c(c(O)c1C2=O)C[C@@](O)(C(=O)CO)C[C@@H]3O[C@H]1C[C@H](N)[C@H](O)[C@H](C)O1` [DOXORUBICIN], the IC50 is reported as 166 nM.

What follows are compounds tested on KU812 cell line (assay: cells). Conditions: Homo sapiens, KU812.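 Further: growth inhibition of KU812 cells, read out with a cell viability assay.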
Type: functional, cell-based, Homo sapiens
Description: SANGER: Inhibition of human KU812 cell growth in a cell viability assay.
For `COc1cccc2c1C(=O)c1c(O)c3c(c(O)c1C2=O)C[C@@](O)(C(=O)CO)C[C@@H]3O[C@H]1C[C@H](N)[C@H](O)[C@H](C)O1` [DOXORUBICIN], the IC50 was 33.2 nM.

Each compound was assayed on KY821 (assay: cells). Conditions: Homo sapiens, KY821.
Type: functional, cell-based, Homo sapiens
Description: SANGER: Inhibition of human KY821 cell growth in a cell viability assay.
`COc1cccc2c1C(=O)c1c(O)c3c(c(O)c1C2=O)C[C@@](O)(C(=O)CO)C[C@@H]3O[C@H]1C[C@H](N)[C@H](O)[C@H](C)O1` [DOXORUBICIN] gave an IC50 greater than 1020 nM.

These compounds were tested on HO-1-N-1 (assay: cells). Conditions: Homo sapiens, HO-1-N-1.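 Further: growth inhibition of human HO-1-N-1 cells, read out with a cell viability assay.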
Type: functional, cell-based, Homo sapiens
Description: SANGER: Inhibition of human HO-1-N-1 cell growth in a cell viability assay.
Work on `COc1cccc2c1C(=O)c1c(O)c3c(c(O)c1C2=O)C[C@@](O)(C(=O)CO)C[C@@H]3O[C@H]1C[C@H](N)[C@H](O)[C@H](C)O1` [DOXORUBICIN] yielded an IC50 of 223 nM.
